Results: patent publication US10023565B2, “N,N′ substituted piperidinamine compounds, and preparation method and usage thereof” (Institute of Pharmacology and Toxicology Academy of …, priority 2013, dated 2018)
pIC50: −log10 of the molar value. Blank lines part the entries; values can stand above or below the compound they belong to.

Columns and labels:
BT/Lap^R1.0 = assay: Antitumor bioactivity evaluation, breast cancer cells (ATPlite); type: cell-based, human; details: Homo sapiens; for inhibition at 5 µM: test sample 5 μM, 72 hours, read-out: Inhibitory Rate % BT/Lap^R1.0
Method in brief: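 Cells seeded at 5000/well, allowed to adhere 24 h at 37° C, then treated with test compound at final 5 μM, alone or combined with lapatinib at final 1 μM, for 72 h at 37° C. ATPlite luminescence read; survival rate = treated RLU/control RLU × 100%.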

[1] = test system: six human breast cancer cell strains; assay: Antitumor activity evaluation, statements on the whole panel; type: cell-based; details: compound alone
Excerpt: In antitumor activity evaluation, six human breast cancer cell strains are selected, including BT474, SK-BR3 which are human breast cancer cell strains sensitive to lapatinib, BT/Lap^R1.0, SK/Lap^R1.0 which are human breast cancer cell strains with secondary resistance to lapatinib, MDA-MB-361, MDA-MB-453 which are human breast cancer cell strains with natural resistance tolapatinib.
Antitumor bioactivity evaluation of the compounds of Examples according to the method described below
(§1) Cells plating: a 100 mm culture dish with overgrown adherent cells was digested with 1 ml 0.25% trypsin (GIBCO) at 37° C. for 5 min, and the reaction was terminated with 2 ml culture medium (containing 10% FBS, GIBCO). The cells were scattered and collected, after counting, diluted to 1×10^5 cells/ml, and seeded into a 96-well plate at 50 μl/well, 5000 cells/well, excluding the peripheral circle of wells in which no cell was added, but PBS was added, 60 wells in total, and then incubated at 37° C. for 24 hours for adhering.
Addition of the compound and lapatinib: the test sample was diluted to a final concentration of 5 μM, and the culture medium with the corresponding compound solvent concentration was filled in the control well, the compound solvent concentration was kept consistent in each well, 5 parellel wells were set for each concentration, 25 μl each well, 25 μl culture medium (in combined group, 25 μl lapatinib was added till a final concentration of 1 μM) supplemented, followed by incubation at 37° C. for 72 hours.
(§2) Test after incubation at 37° C. for 72 hours: 50 μL of ATPlite kit substrate solution was added in each well, and vibrated for 3 min, followed by placing aside in darkness for 10 min, and then supernatant 100 μl/well was taken and placed on aluminescence test plate; the luminescence test plate that has been fully incubated was placed in a luminescence test instrument, to read luminescence value.
1. Cell survival rate (%)=Experimental group RLU/control group RLU×100%. The experimental data were subjected to data analysis and processing by utilizing GraphPad software.

A549 = assay: Extended test against tumor cell lines (ATPlite); type: cell-based; details: A549 (lung cancer), 72 hours
Method: (§3) The compounds of Examples 36/37/40/47/49 were used to carry out extended test against tumor cell lines, wherein 12 kinds of cells were selected, including liver cancer cells, gastric cancer cells, pancreatic cancer cells, colorectal cancer cells, lung cancer cells and normal cells, which were shown in Table 12:
as §1, with “A” for “Cells plating: a”, “54” for “60”
(§4) The test sample was diluted to final concentration of 4, 1, 0.25, 0.063, 0.016 μM, culture medium was filled in control well, 3 parellel wells were set for each concentration, 50 μl each well, followed by incubation at 37° C. for 72 hours.
as §2, with “3) Test” for “Test”, “kitsubstrate” for “kit substrate”, “a luminescence” for “aluminescence”
(§5) Cell survival rate (%)=Experimental group RLU/control group RLU×100%. The experimental data were subjected to data analysis and processing by utilizing GraphPad software.

AsPC-1 = assay: Extended test against tumor cell lines (ATPlite); type: cell-based; details: AsPC-1 (pancreatic cancer), 72 hours
Method: as §3
as §1, with “A” for “Cells plating: a”, “54” for “60”
as §4
as §2, with “3) Test” for “Test”, “kitsubstrate” for “kit substrate”, “a luminescence” for “aluminescence”
as §5

BGC823 = assay: Extended test against tumor cell lines (ATPlite); type: cell-based; details: BGC823 (gastric cancer), 72 hours
Method: as §3
as §1, with “A” for “Cells plating: a”, “54” for “60”
as §4
as §2, with “3) Test” for “Test”, “kitsubstrate” for “kit substrate”, “a luminescence” for “aluminescence”
as §5

COLO205 = assay: Extended test against tumor cell lines (ATPlite); type: cell-based; details: COLO205 (colorectal cancer), 72 hours
Method: as §3
as §1, with “A” for “Cells plating: a”, “54” for “60”
as §4
as §2, with “3) Test” for “Test”, “kitsubstrate” for “kit substrate”, “a luminescence” for “aluminescence”
as §5

H460 = assay: Extended test against tumor cell lines (ATPlite); type: cell-based; details: H460 (lung cancer), 72 hours
Method: as §3
as §1, with “A” for “Cells plating: a”, “54” for “60”
as §4
as §2, with “3) Test” for “Test”, “kitsubstrate” for “kit substrate”, “a luminescence” for “aluminescence”
as §5

HT-29 = assay: Extended test against tumor cell lines (ATPlite); type: cell-based; details: HT-29 (colorectal cancer), 72 hours
Method: as §3
as §1, with “A” for “Cells plating: a”, “54” for “60”
as §4
as §2, with “3) Test” for “Test”, “kitsubstrate” for “kit substrate”, “a luminescence” for “aluminescence”
as §5

Huh-7 = assay: Extended test against tumor cell lines (ATPlite); type: cell-based; details: Huh-7 (liver cancer), 72 hours
Method: as §3
as §1, with “A” for “Cells plating: a”, “54” for “60”
as §4
as §2, with “3) Test” for “Test”, “kitsubstrate” for “kit substrate”, “a luminescence” for “aluminescence”
as §5

MIA-PaCa-2 = assay: Extended test against tumor cell lines (ATPlite); type: cell-based; details: MIA-PaCa-2 (pancreatic cancer), 72 hours
Method: as §3
as §1, with “A” for “Cells plating: a”, “54” for “60”
as §4
as §2, with “3) Test” for “Test”, “kitsubstrate” for “kit substrate”, “a luminescence” for “aluminescence”
as §5

[2] = test system: MRC5 (lung epithelial fibroblast); assay: Extended test against tumor cell lines (ATPlite); type: cell-based; details: MRC5 (normal cells), 72 hours
Method: as §3
as §1, with “A” for “Cells plating: a”, “54” for “60”
as §4
as §2, with “3) Test” for “Test”, “kitsubstrate” for “kit substrate”, “a luminescence” for “aluminescence”
as §5

N87 = assay: Extended test against tumor cell lines (ATPlite); type: cell-based; details: N87 (gastric cancer), 72 hours
Method: as §3
as §1, with “A” for “Cells plating: a”, “54” for “60”
as §4
as §2, with “3) Test” for “Test”, “kitsubstrate” for “kit substrate”, “a luminescence” for “aluminescence”
as §5

[3] = test system: tumor cells and normal cells (12 kinds of cells); assay: Extended test against tumor cell lines, statements on the whole panel; type: cell-based; details: 12 kinds of cells, 0.016-4 μM, 72 hours
Method: as §3
as §1, with “A” for “Cells plating: a”, “54” for “60”
as §4
as §2, with “3) Test” for “Test”, “kitsubstrate” for “kit substrate”, “a luminescence” for “aluminescence”
as §5

pIC50 (BT/Lap^R1.0): 6.03
SMILES: CSc1nccc(N2CCC(N(C)Cc3c(F)cccc3Cl)CC2)n1 [Example 37, N-methyl-N-(2-fluoro-6-chlorobenzyl)-N-[1-(2-methylthiopyrimidin-4-yl)piperidin-4-yl]amine]
inhibition at 5 µM (BT/Lap^R1.0): 70.7% | growth inhibition to the six human breast cancer cell strains [1]: relatively significant growth inhibition | Survival rate (A549; 0.016 μM): 99.5% | Survival rate (A549; 0.063 μM): 98.5% | Survival rate (A549; 0.25 μM): 97.6% | Survival rate (A549; 1 μM): 73% | Survival rate (A549; 4 μM): 39.5% | Survival rate (AsPC-1; 0.016 μM): 98.8% | Survival rate (AsPC-1; 0.063 μM): 99.5% | Survival rate (AsPC-1; 0.25 μM): 94.1% | Survival rate (AsPC-1; 1 μM): 81.7% | Survival rate (AsPC-1; 4 μM): 52.3% | Survival rate (BGC823; 0.016 μM): 97.6% | Survival rate (BGC823; 0.063 μM): 97.2% | Survival rate (BGC823; 0.25 μM): 90.2% | Survival rate (BGC823; 1 μM): 59.7% | Survival rate (BGC823; 4 μM): 21% | Survival rate (COLO205; 0.016 μM): 100.1% | Survival rate (COLO205; 0.063 μM): 97.5% | Survival rate (COLO205; 0.25 μM): 100.4% | Survival rate (COLO205; 1 μM): 94.5% | Survival rate (COLO205; 4 μM): 12.9% | Survival rate (H460; 0.016 μM): 97.7% | Survival rate (H460; 0.063 μM): 97.9% | Survival rate (H460; 0.25 μM): 92.3% | Survival rate (H460; 1 μM): 63.1% | Survival rate (H460; 4 μM): 22% | Survival rate (HT-29; 0.016 μM): 99.3% | Survival rate (HT-29; 0.063 μM): 97.4% | Survival rate (HT-29; 0.25 μM): 94.4% | Survival rate (HT-29; 1 μM): 82.1% | Survival rate (HT-29; 4 μM): 33.8% | Survival rate (Huh-7; 0.016 μM): 91.9% | Survival rate (Huh-7; 0.063 μM): 86.7% | Survival rate (Huh-7; 0.25 μM): 82.3% | Survival rate (Huh-7; 1 μM): 46.7% | Survival rate (Huh-7; 4 μM): 14.9% | Survival rate (MIA-PaCa-2; 0.016 μM): 97.6% | Survival rate (MIA-PaCa-2; 0.063 μM): 97.5% | Survival rate (MIA-PaCa-2; 0.25 μM): 91.5% | Survival rate (MIA-PaCa-2; 1 μM): 61.9% | Survival rate (MIA-PaCa-2; 4 μM): 16% | Survival rate ([2]; 0.016 μM): 97.3% | Survival rate ([2]; 0.063 μM): 99.5% | Survival rate ([2]; 0.25 μM): 93.5% | Survival rate ([2]; 1 μM): 90.4% | Survival rate ([2]; 4 μM): 65.3% | Survival rate (N87; 0.016 μM): 98.9% | Survival rate (N87; 0.063 μM): 95.6% | Survival rate (N87; 0.25 μM): 89.7% | Survival rate (N87; 1 μM): 66.8% | Survival rate (N87; 4 μM): 37.1% | inhibition of tumor cells versus cytotoxicity to normal cells [3]: slightly stronger inhibition to liver cancer than that to other tumor cells, and exhibited cytotoxicity to normal cells lower than inhibition to tumor cells

pIC50 (BT/Lap^R1.0): 6.15
SMILES: CSc1nccc(N2CCC(N(C)Cc3c(Cl)cccc3Cl)CC2)n1 [Example 49, N-methyl-N-(2,6-dichlorobenzyl)-N-[1-(2-methylthiopyrimidin-4-yl)piperidin-4-yl]amine]
inhibition at 5 µM (BT/Lap^R1.0): 58.8% | Survival rate (A549; 0.016 μM): 99.9% | Survival rate (A549; 0.063 μM): 95.1% | Survival rate (A549; 0.25 μM): 95.2% | Survival rate (A549; 1 μM): 60.5% | Survival rate (A549; 4 μM): 40.1% | Survival rate (AsPC-1; 0.016 μM): 99.1% | Survival rate (AsPC-1; 0.063 μM): 97.5% | Survival rate (AsPC-1; 0.25 μM): 93.8% | Survival rate (AsPC-1; 1 μM): 64.4% | Survival rate (AsPC-1; 4 μM): 44.3% | Survival rate (BGC823; 0.016 μM): 102.8% | Survival rate (BGC823; 0.063 μM): 102.4% | Survival rate (BGC823; 0.25 μM): 95.1% | Survival rate (BGC823; 1 μM): 44% | Survival rate (BGC823; 4 μM): 17.3% | Survival rate (COLO205; 0.016 μM): 98.1% | Survival rate (COLO205; 0.063 μM): 94.2% | Survival rate (COLO205; 0.25 μM): 95.8% | Survival rate (COLO205; 1 μM): 83.9% | Survival rate (COLO205; 4 μM): 4.1% | Survival rate (H460; 0.016 μM): 98.4% | Survival rate (H460; 0.063 μM): 98.3% | Survival rate (H460; 0.25 μM): 94.2% | Survival rate (H460; 1 μM): 47.9% | Survival rate (H460; 4 μM): 19.3% | Survival rate (HT-29; 0.016 μM): 96.3% | Survival rate (HT-29; 0.063 μM): 91% | Survival rate (HT-29; 0.25 μM): 84.7% | Survival rate (HT-29; 1 μM): 63.9% | Survival rate (HT-29; 4 μM): 25.1% | Survival rate (Huh-7; 0.016 μM): 91.3% | Survival rate (Huh-7; 0.063 μM): 82% | Survival rate (Huh-7; 0.25 μM): 70.5% | Survival rate (Huh-7; 1 μM): 19.4% | Survival rate (Huh-7; 4 μM): 12.8% | Survival rate (MIA-PaCa-2; 0.016 μM): 97.6% | Survival rate (MIA-PaCa-2; 0.063 μM): 97.4% | Survival rate (MIA-PaCa-2; 0.25 μM): 92.8% | Survival rate (MIA-PaCa-2; 1 μM): 33.1% | Survival rate (MIA-PaCa-2; 4 μM): 22.9% | Survival rate ([2]; 0.016 μM): 100.6% | Survival rate ([2]; 0.063 μM): 100.1% | Survival rate ([2]; 0.25 μM): 94.8% | Survival rate ([2]; 1 μM): 80.8% | Survival rate ([2]; 4 μM): 41.1% | Survival rate (N87; 0.016 μM): 89.5% | Survival rate (N87; 0.063 μM): 74.1% | Survival rate (N87; 0.25 μM): 65.6% | Survival rate (N87; 1 μM): 42.8% | Survival rate (N87; 4 μM): 26% | inhibition of tumor cells versus cytotoxicity to normal cells [3]: certain inhibition and cytotoxicity to either tumor cells or normal cells, without significant difference
